Experiment [1] has as its system phosphorylation of FLT3 and STAT5 in MV4-11 tumors. Nature of the experiment: FLT3 signaling in MV4-11 xenograft tumors (western blot). It is filed as in vivo, NOD-SCID mice. As to conditions: single oral dose 10 mg/kg. The protocol: To examine the effects of SKLB-677 on FLT3 and Wnt/β-catenin signaling in vivo, the same MV4-11 xenograft model was used and MV4-11 tumors were harvested at specific time points (0 h, 4 h, 6 h, 8 h, 12 h, and 24 h) after the treatment of 10 mg/kg SKLB-677 (3 mice for each time point). Western blot assays and real-time qPCR assays were conducted on the harvested tumors.
Western blot analysis was performed as previously described. Whole protein lysates of tumor samples were collected by the abrading of tumors in liquid nitrogen. […] Quantitative analysis of the protein level was performed with NIH image analysis software, ImageJ (normalized relative to the vehicle control).
Figure 5 In vivo effects of SKLB-677. […] The tumor volume and body weight were measured every 3 days during the treatment. […] Ki67 and TUNEL were detected with immunohistochemical. […] Tumors were harvested at the indicated time points, and the FLT3 signaling pathway was detected using western blot assays. […] (e) The same harvested tumors were detected using real-time qPCR assays to test the expression of AXIN2 and NKD1 (the target genes of Wnt/β-catenin pathway). […] The plasma concentrations were determined using liquid–liquid extraction followed by high-performance liquid chromatography (HPLC) with tandem mass spectrometric detection.
(In general: Immunoblotting shows a protein as a band on a membrane.)

A further experiment deals with FLT3-D835H (Homo sapiens, UniProt P36888, D835H). Nature of the experiment: KINOMEscan kinase binding assay (Kd). More on the design: purchased Ambit Biosciences (KINOMEscan).
The next experiment deals with T1, PRKCI (Homo sapiens, UniProt P41743).
T1 construct: purchased DiscoveRx KINOMEscan (Ambit Biosciences)
T1 sequence (P41743 whole entry): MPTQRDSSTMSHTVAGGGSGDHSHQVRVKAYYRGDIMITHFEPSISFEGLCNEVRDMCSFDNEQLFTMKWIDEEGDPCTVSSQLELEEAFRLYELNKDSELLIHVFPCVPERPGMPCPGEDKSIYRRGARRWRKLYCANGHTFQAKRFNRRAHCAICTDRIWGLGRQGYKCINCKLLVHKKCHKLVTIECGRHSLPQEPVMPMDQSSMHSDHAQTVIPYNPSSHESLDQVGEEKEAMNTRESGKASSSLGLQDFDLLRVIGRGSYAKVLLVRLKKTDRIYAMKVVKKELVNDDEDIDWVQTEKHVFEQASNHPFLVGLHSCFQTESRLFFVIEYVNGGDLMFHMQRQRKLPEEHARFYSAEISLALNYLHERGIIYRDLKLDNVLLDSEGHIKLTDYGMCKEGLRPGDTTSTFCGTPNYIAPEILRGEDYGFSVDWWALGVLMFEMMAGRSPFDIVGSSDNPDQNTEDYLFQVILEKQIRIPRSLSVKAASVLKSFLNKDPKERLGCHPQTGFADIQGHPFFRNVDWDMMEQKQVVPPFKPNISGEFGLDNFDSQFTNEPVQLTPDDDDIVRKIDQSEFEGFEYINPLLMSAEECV
Nature of the experiment: KINOMEscan panel screen. In kind it is binding. Particulars: read-out: Percent Control(%).

The next experiment deals with T2, DDR2 (Homo sapiens, UniProt Q16832).
T2 construct: purchased DiscoveRx KINOMEscan (Ambit Biosciences)
T2 sequence (Q16832 22-855): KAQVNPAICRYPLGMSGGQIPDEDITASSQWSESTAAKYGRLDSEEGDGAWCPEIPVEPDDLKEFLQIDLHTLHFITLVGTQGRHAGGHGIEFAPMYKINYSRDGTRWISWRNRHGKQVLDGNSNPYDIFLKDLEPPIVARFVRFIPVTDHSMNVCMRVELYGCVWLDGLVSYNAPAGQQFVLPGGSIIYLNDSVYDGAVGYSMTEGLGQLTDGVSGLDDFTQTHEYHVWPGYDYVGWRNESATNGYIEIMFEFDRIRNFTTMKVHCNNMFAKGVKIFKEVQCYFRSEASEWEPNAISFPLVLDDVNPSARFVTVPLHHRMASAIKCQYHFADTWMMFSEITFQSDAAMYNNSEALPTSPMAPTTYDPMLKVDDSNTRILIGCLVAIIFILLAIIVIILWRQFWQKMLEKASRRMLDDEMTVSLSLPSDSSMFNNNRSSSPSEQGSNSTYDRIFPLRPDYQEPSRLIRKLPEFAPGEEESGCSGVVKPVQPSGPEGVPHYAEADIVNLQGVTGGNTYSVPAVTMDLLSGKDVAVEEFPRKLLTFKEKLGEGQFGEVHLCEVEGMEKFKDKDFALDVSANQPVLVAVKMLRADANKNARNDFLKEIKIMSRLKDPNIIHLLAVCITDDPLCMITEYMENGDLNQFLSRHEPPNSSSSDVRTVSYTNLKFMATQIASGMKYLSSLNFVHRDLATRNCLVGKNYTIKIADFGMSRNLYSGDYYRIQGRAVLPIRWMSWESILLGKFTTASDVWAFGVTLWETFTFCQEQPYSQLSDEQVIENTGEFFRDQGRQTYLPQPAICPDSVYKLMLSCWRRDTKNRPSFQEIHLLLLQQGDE
Nature of the experiment: KINOMEscan panel screen. As to conditions: read-out: Percent Control(%). It is filed as binding.

Another experiment has as its target ERBB2 (Homo sapiens, UniProt P04626). Nature of the experiment: KINOMEscan kinase binding assay (Kd).
A further experiment has as its target T3, YES (Homo sapiens, UniProt P07947).
T3 construct: purchased DiscoveRx KINOMEscan (Ambit Biosciences)
The experiment is described as follows: KINOMEscan panel screen. In kind it is binding. Particulars: read-out: Percent Control(%).

For another experiment, the target named is T4, ROCK2 (Homo sapiens, UniProt O75116).
T4 construct: purchased DiscoveRx KINOMEscan (Ambit Biosciences)
The experiment is described as follows: KINOMEscan panel screen. Particulars: read-out: Percent Control(%). It is filed as binding.

The target of the next experiment is T5, FLT3(K663Q) (Homo sapiens, UniProt P36888, K663Q).
T5 construct: purchased DiscoveRx KINOMEscan (Ambit Biosciences)
The experiment is described as follows: KINOMEscan panel screen. Particulars: read-out: Percent Control(%). In kind it is binding.

Another experiment addresses LCK (Homo sapiens, UniProt P06239). Nature of the experiment: KINOMEscan panel screen. In kind it is binding. As to conditions: read-out: Percent Control(%).
For another experiment, the system named is normal PBMCs. The experiment is described as follows: CellTiterGlo viability assay, normal PBMCs. In kind it is cell-based, human. Particulars: 72 h. The text has this:
The patients’ information is listed in Supplementary Table S5. For comparison, three normal PB samples were also collected (sample #7, #8, #9). Peripheral blood mononuclear cells (PBMCs) were isolated from each sample in the following assays.
Methods used in this study were approved by the Ethics Committee of the West China Hospital. Informed consent for the use of human AML and normal peripheral blood (PB) samples for the present study was obtained from all patients according to the Declaration of Helsinki.
Effects of compounds on the PBMC viability were examined using CellTiterGlo (Promega) assays. […] The signal from the viable cells was assessed according to the manufacturer’s protocol.

A further experiment addresses T6, ERBB3 (Homo sapiens, UniProt P21860).
T6 construct: purchased DiscoveRx KINOMEscan (Ambit Biosciences)
The experiment is described as follows: KINOMEscan panel screen. It is filed as binding. Particulars: read-out: Percent Control(%).

T6 sequence (P21860 20-1342): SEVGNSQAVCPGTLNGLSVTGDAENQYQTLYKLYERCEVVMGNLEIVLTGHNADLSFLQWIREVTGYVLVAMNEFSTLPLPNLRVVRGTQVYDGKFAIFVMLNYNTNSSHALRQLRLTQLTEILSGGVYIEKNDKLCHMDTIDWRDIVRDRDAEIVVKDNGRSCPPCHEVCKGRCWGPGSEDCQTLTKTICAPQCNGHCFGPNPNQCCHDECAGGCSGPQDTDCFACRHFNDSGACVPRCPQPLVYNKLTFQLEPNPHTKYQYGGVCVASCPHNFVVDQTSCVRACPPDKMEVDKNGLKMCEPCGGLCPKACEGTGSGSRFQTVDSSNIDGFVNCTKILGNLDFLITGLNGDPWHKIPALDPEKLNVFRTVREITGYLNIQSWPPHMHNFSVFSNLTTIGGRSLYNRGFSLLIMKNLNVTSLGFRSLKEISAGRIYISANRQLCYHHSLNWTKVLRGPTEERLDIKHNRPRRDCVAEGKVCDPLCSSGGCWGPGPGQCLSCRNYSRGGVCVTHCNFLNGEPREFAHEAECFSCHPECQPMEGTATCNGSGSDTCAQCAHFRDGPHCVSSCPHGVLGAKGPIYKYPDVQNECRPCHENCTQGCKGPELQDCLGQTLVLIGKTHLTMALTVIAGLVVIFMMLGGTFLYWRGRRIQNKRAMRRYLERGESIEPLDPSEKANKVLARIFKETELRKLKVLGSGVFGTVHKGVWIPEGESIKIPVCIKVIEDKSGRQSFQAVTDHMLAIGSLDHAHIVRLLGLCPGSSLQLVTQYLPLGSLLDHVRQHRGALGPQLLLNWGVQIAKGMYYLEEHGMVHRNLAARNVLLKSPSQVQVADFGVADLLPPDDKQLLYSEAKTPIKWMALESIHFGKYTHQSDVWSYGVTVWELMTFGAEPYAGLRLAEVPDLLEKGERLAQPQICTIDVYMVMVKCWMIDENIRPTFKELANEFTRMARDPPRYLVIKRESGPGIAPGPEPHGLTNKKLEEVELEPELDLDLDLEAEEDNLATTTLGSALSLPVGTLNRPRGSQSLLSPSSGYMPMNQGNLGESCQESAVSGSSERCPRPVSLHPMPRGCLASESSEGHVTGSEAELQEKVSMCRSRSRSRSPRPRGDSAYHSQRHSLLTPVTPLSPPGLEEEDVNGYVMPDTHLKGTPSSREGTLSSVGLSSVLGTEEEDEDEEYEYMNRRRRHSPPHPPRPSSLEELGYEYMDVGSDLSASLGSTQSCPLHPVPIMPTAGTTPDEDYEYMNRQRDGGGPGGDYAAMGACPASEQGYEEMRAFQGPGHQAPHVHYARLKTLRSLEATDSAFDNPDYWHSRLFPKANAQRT
LCK, sequence (P06239 whole entry): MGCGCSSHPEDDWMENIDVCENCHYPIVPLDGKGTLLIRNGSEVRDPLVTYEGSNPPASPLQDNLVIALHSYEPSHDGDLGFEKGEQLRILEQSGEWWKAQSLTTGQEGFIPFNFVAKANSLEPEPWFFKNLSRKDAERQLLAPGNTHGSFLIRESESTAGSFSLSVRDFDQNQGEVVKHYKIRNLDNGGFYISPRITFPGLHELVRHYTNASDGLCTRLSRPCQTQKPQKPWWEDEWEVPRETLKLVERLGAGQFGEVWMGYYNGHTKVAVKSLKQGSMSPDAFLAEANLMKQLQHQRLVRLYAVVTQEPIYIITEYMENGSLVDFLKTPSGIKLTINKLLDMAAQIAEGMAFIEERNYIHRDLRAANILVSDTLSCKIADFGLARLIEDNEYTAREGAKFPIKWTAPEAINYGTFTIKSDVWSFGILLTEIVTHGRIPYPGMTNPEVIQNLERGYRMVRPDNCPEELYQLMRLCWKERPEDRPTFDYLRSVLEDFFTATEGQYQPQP
T3 sequence (P07947 whole entry): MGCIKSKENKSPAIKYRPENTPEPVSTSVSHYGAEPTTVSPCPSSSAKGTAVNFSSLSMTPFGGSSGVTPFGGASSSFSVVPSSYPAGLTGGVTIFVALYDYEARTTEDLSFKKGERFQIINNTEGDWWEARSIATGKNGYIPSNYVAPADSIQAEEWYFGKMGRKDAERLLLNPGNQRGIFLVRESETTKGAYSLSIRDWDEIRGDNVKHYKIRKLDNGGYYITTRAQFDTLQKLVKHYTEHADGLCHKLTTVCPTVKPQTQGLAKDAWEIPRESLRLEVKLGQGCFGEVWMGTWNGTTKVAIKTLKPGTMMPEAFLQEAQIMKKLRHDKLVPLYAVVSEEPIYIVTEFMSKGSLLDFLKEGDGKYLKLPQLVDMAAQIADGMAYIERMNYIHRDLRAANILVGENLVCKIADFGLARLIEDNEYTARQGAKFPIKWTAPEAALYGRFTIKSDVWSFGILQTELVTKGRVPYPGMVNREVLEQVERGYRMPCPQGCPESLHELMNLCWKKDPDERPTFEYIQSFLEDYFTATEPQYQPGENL
ERBB2, sequence (P04626 23-1255): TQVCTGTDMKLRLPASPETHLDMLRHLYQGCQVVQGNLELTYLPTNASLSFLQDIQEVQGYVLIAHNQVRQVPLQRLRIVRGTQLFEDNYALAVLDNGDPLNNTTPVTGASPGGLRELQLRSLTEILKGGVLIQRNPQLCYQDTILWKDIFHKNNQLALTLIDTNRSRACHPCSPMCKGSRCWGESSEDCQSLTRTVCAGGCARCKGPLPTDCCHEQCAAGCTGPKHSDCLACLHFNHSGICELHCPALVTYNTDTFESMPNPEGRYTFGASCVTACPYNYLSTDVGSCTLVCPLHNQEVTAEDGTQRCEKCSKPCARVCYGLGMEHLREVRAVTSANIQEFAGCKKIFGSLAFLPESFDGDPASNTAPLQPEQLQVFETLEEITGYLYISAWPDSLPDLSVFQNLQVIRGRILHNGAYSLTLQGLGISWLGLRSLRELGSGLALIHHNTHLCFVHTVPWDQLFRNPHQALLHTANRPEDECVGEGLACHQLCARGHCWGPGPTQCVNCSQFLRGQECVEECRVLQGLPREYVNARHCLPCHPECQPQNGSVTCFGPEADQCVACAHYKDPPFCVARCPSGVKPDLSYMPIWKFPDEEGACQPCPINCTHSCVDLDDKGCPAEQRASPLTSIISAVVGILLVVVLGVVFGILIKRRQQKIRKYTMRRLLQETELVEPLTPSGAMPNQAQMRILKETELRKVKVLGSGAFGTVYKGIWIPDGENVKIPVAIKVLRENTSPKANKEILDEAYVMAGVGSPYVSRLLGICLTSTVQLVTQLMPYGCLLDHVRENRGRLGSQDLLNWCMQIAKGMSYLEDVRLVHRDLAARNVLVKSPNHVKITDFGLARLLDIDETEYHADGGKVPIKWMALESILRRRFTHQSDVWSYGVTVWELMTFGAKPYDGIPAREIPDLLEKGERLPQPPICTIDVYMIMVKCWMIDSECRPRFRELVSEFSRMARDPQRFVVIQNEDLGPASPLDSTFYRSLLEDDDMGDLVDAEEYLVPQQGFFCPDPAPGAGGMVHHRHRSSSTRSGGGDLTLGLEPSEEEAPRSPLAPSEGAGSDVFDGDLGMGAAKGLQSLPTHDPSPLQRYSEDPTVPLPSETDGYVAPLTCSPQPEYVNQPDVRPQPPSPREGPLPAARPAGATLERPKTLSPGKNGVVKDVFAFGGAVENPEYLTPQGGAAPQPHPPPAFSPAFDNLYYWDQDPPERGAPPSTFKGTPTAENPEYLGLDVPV

As for `CC(C)(C)c1cc(NC(=O)Nc2ccc(Oc3ncnc4[nH]ncc34)c(F)c2)no1` [SKLB-677, 1-(4-(1H-pyrazolo[3,4-d]pyrimidin-4-yloxy)-3-fluorophenyl)-3-(5-tert-butylisoxazol-3-yl)urea], the “time for which the effects on p-FLT3 and p-STAT5 were maintained” value in experiment [1] was “up to 24 h”. Moreover, the “phosphorylation of FLT3 and STAT5 in tumors” value in [1] (4 h posttreatment) is recorded as “nearly abolished”. Further, the Kd on FLT3-D835H was 0.00074 µM; at ERBB2, above 10 µM. Moreover, the remaining binding at 10 µM came out at 79% on PRKCI; 61% on DDR2; 27% at YES; 66% at ROCK2; 1.8% at FLT3(K663Q); 0.3% at LCK. For the same molecule, the remaining binding at 10 µM on ERBB3 was 98%. Further, the IC50 with normal PBMCs (Homo sapiens, PBMC, sample #7, normal PBMCs) was above 10 µM; in the experiment on normal PBMCs (sample #8, normal PBMCs), above 10 µM; with normal PBMCs (sample #9, normal PBMCs), above 10 µM.

The Kd is the constant that tells how readily two partners part at equilibrium. Read a low Kd as higher affinity. What is called IC50 is the concentration that gives 50% inhibition. A lower IC50 goes with higher potency.

Values taken from article PMC4620497 (Scientific Reports, 2015).
